From patent US20220401469A1, “PROCESS FOR PREPARATION OF BIOLOGICALLY ACTIVE COPOLYMER” (RECCE PHARMACEUTICALS LTD, priority 2020, published 2022)
Several values for one entry are separate records, joined by “and”; a condition that tells them apart may be missing. Equal entries are not always repeated. Marks after values point to notes of the source that are not given here.

What was measured:
E. coli [ATCC 25922] = test: Ascending Urinary Tract Infection Rat Model (kidneys, bladder); type: in vivo
[1] = system: Neisseria gonorrhoea (ATCC700825); details: in vivo, 50 mg/kg
[2] = system: Neisseria gonorrhoea (ATCC700825); test: Mouse vaginal infection model; details: mice; Meropenem IV bolus 50 mg/kg for seven days; p<0.05
[3] = system: Influenza A virus (H1N1) Strain: A/NWS/33; test: Mouse influenza model (C57BL/6), body weights and lung viral titers; type: in vivo
[4] = system: Staphylococcus aureus [ATCC 43300]; test: Burn Wound Infection Model in rats; type: in vivo
[5] = Meropenem 30 mg/kg single dose i.v. bolus
[6] = Meropenem 30 mg/kg single dose i.v. bolus, individual animals
[7] = Meropenem single IV bolus 30 mg/kg, E1 50 and 500 mg/kg i.v. 24 h infusion

Molecule: C[C@@H](O)[C@H]1C(=O)N2C(C(=O)O)=C(S[C@@H]3CN[C@H](C(=O)N(C)C)C3)[C@H](C)[C@H]12 [Meropenem]
- Mean Log10CFU/g Bladder change (wrt 4 h PI control: 6.54 Log10CFU/g Bladder) (E. coli [ATCC 25922]; [5]): −1.11 Log10CFU/g
- Mean Log10CFU/g kidney change (wrt 4 h PI control: 4.73 Log10CFU/g kidneys) (E. coli [ATCC 25922]; [5]): −1.27 Log10CFU/g
- Mean ± SD (Log10 CFU/g Bladder) (E. coli [ATCC 25922]; [5]): 5.43 ± 0.36 Log10 CFU/g Bladder
- Mean ± SD (Log10 CFU/g kidneys) (E. coli [ATCC 25922]; [5]): 3.46 ± 0.19 Log10 CFU/g kidneys
- Log10 CFU/g Bladder (E. coli [ATCC 25922]; [6]): 5.04 Log10 CFU/g and 5.24 Log10 CFU/g and 5.91 Log10 CFU/g and 5.25 Log10 CFU/g and 5.71 Log10 CFU/g
- Log 10 CFU/g Kidneys Left kidney (E. coli [ATCC 25922]; [6]): 3.46 Log 10 CFU/g (2×) and 3.61 Log 10 CFU/g and 3.41 Log 10 CFU/g and 3.37 Log 10 CFU/g
- Log 10 CFU/g Kidneys Right kidney (E. coli [ATCC 25922]; [6]): 3.36 Log 10 CFU/g and 3.69 Log 10 CFU/g and 3.80 Log 10 CFU/g and 3.16 Log 10 CFU/g and 3.31 Log 10 CFU/g
- antibacterial activity in kidneys compared to vehicle control (E. coli [ATCC 25922]; [7]): significant bactericidal activity in kidneys
- antibacterial activity in the bladder compared to vehicle control (E. coli [ATCC 25922]; [7]): significant bactericidal activity in the bladder
- Clinical signs [1]: N
- bactericidal activity in vaginal load compared to vehicle control [2]: significant bactericidal activity in vaginal load

Molecule: NC(=O)c1ncn([C@@H]2O[C@H](CO)[C@@H](O)[C@H]2O)n1 [Ribavirin]
- body weights compared to vehicle control on day 4 ([3]; Ribavarin, E1 25, 50 and 100 mg/kg, CE3 100, 500 and 1000 mg/kg, p<0.05): significantly higher body weights
- viral growth rate and viral load in the lungs compared to vehicle control ([3]; Ribavirin 66 mg/kg IP, E1 25-100 mg/kg, CE3 100-1000 mg/kg iv bid): significantly reduced the viral growth rate and viral load in the lungs
- viral titres compared to vehicle control on day 4 ([3]; Ribavirin, E1 25, 50 and 100 mg/kg, CE3 100, 500 and 1000 mg/kg, p<0.05): significantly lower viral titres
- Body weights Mean ([3]; mice infected with H1N1, Ribavarin 66 mg/kg i.p., Day 0): 23.92 g
- Body weights Mean ([3]; mice infected with H1N1, Ribavarin 66 mg/kg i.p., Day 1): 23.50 g
- Body weights Mean ([3]; mice infected with H1N1, Ribavarin 66 mg/kg i.p., Day 2): 24.22 g
- Body weights Mean (g) ([3]; mice infected with H1N1, Ribavarin 66 mg/kg i.p., Day 4): 24.67* g
- Body weights Mean ([3]; mice infected with H1N1, Ribavarin 66 mg/kg i.p., Day 6): 24.70 g
- body weight through the study ([3]; mice infected with H1N1, Ribavirin 66 mg/kg once daily IP): no significant decrease in body weight

Molecule: Saframycin
- bacterial load on day 4 compared to day 1 ([4]; E1, CE3 100 μl (19.15 mg/ml) topical 3 days, Saframycin 30 mg topical b.i.d 3 days): did not show significant efficacy on day 4 when compared to day 1
- % wound contraction on Day 4 PI (Mean ± SD) ([4]; E1, CE3 100 μl (19.15 mg/ml) topical 3 days, Safromycin 30 mg topical b.i.d 3 days): 2.48 ± 0.30%
- wound reduction on day 4 compared to vehicle control ([4]; E1, CE3 100 μl (19.15 mg/ml) topical 3 days, Safromycin 30 mg topical b.i.d 3 days, p<0.05): significant reduction wound on day 4
- Bacterial Load on skin post treatment Day 1 PI ([4]; Mean ± SD, E1, CE3 100 μl (19.15 mg/ml) topical u.i.d 3 days, Safromycin 30 mg topical b.i.d 3 days, Day 1 PI): 5.84 ± 0.35 Logic CFU/Swab
- Bacterial Load on skin post treatment Day 4 PI ([4]; Mean ± SD, E1, CE3 100 μl (19.15 mg/ml) topical u.i.d 3 days, Safromycin 30 mg topical b.i.d 3 days, Day 4 PI): 4.87 ± 0.63 Logic CFU/Swab
